Results from patent publication US20140341853A1, “Bacteria-Mediated Therapy for Cancer” (priority 2013, published 2014).

Test system: yeast cells
Assay: MTT assay using transformed E. coli, yeast cells and Daun02 as the prodrug
Assay type: cell-based
Procedure: In an exemplary embodiment, E. coli BL21 cells were transformed with the pSV-β-Galactosidase plasmid which contains a gene for beta-gal (available from Promega, Wisconsin, USA). Other types of bacteria and differently configured plasmids can also be used. Yeast can act as a eukaryotic cell model for cancer cells. Yeast cells contain mitochondria and a number of proteins homologous to those in humans. A MTT assay was performed using the transformed E. coli, yeast cells, and Daun02 as the prodrug. MTT is a tetrazolium dye which is converted into an insoluble purple-colored product (formazan) by live cells. The presence of formazan was measured spectrophotometrically. […] FIGS. 2A and 2B illustrate results of studies in which growing yeast cells were exposed to transformed E. coli BL21 cells and the prodrug Daun02. Bacteria and yeast were cultured over night and allowed to grow for 3 hours to be in optimal linear growth phase and samples were incubated together for approximately 5.5 or 10 hours in a 96 well microwell plate. The antibiotic kanamycin was added to all sample wells to reduce bacterial background signal. MTT dye was then added to wells and samples were incubated for three hours. A solubilization solution was then added, incubated for one hour, and the optical density was measured at 570 nm with a microplate reader. The absorbance at 570 nm of bacteria-only and bacteria and yeast-only samples were also measured. […] FIGS. 2A and 2B display results from different treatment times: 5.5 hours and 10 hours, respectively. […] Samples C and D contained beta-gal expressing bacteria, prodrug, and yeast cells. […] The length of time can be increased or decreased to increase the effectiveness of the treatment. […] A 2-Sample T-Test between the control sample and Sample C in the 10 hour experiment returned a p-value of 0.00296. […] Both p-values are smaller than the alpha level of 0.05 chosen before experimentation.

## COc1cccc2c1C(=O)c1c(O)c3c(c(O)c1C2=O)C[C@@](O)(C(C)=O)C[C@@H]3O[C@H]1C[C@H](NC(=O)OCc2ccc(O[C@@H]3O[C@H](CO)[C@H](O)[C@H](O)[C@H]3O)c([N+](=O)[O-])c2)[C@H](O)[C@H](C)O1 [Daun02, N-[4″-(β-galactopyranosyl)-3″-nitrobenzyloxycarbonyl]daunomycin]
Sample C: 2.5 μM Daun02 with beta-gal expressing E. coli BL21, 10 hours, p-value 0.00296 vs control
  MTT absorbance at 570 nm (yeast cell survival): yeast cell death
Sample D: 5 μM Daun02 with beta-gal expressing E. coli BL21, 5.5 hours, bacterial background subtracted
  MTT absorbance at 570 nm (yeast cell survival): low absorption values
Sample D: 5 μM Daun02 with beta-gal expressing E. coli BL21, 10 hours, p-value 0.00593 vs control
  MTT absorbance at 570 nm (yeast cell survival): yeast cell death
Samples A and B: yeast and prodrug, no bacteria (no added beta-gal enzyme), 5.5 and 10 hours
  MTT absorbance at 570 nm (yeast cell survival): close to the control values
